Assay results reported in patent US20260008783A1, “MODULATORS OF FSHR AND USES THEREOF” (Celmatix Inc., priority 2022, published 2026).
pIC50: −log10 of the molar value.

Molecular target: T1, Follicle Stimulating Hormone Receptor (FSHR) (Homo sapiens, UniProt P23945)
T1 construct: HA (N); expressed in transfected cells; host or cells: CHO-K1, transient transfection, pHM6 vector (CMV promoter)
T1 sequence (P23945 18-695): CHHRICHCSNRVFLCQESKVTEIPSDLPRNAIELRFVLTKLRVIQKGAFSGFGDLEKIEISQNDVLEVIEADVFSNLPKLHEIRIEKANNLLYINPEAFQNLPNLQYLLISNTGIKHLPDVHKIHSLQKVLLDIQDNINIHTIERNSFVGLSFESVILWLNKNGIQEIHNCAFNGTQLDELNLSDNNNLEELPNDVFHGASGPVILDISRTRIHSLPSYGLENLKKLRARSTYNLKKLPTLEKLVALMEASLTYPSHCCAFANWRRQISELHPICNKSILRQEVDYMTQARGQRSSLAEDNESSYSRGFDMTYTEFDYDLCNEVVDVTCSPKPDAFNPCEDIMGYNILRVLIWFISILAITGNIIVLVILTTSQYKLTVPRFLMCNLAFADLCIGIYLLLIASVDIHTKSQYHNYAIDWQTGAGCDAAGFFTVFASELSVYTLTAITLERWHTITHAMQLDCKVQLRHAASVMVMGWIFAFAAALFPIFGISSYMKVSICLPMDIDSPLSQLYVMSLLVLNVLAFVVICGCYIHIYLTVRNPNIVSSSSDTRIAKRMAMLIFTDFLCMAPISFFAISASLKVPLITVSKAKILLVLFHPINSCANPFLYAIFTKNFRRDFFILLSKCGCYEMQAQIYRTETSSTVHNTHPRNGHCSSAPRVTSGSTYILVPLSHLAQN
Assay: HTRF cAMP agonist assay, FSHR, transiently transfected CHO-K1 cells
Type: cell-based
Details: CHO-K1 cells transiently expressing human FSHR, read-out: IC50 FSHR LANCE CAMP
Source text: Example 17. HTRF cAMP Agonist Assay Protocol (for FSHR, TSHR, LHCGR)
Mammalian expression vectors designed to express either Follicle Stimulating Hormone Receptor (FSHR), Thyroid Stimulating Hormone Receptor (TSHR), or Luteinizing Hormone/Choriogonadotropin Receptor (LHCGR), were generated with an HA-tag on the N-terminus. All constructs were expressed under a human cytomegalovirus (CMV) immediate early enhancer and promoter using the pHM6 expression vector. The protein coding region was confirmed by sequence analysis to be in-frame and of the expected sequence, matching the following accession numbers: FSHR NM_000145, TSHR NM_000369, and LHCGR NM_000233.
HTRF cAMP assays were performed using Chinese Hamster Ovary (CHO-K1) cell lines transiently expressing human FSH, TSH, and LHCG receptors. 48 hours before the assay, cells were washed with PBS and then dissociated from tissue culture flasks with 0.25% trypsin. Dissociated cells were quenched in full media (F-12K Medium Corning REF #10-025-CV, 10% Avantor Seradigm FB Essence Cat #10803-034, 1% Penicillin/Streptomycin Cytiva HyClone Cat #SV30010) and then collected by centrifugation at 290×g for 5 min. Cells were resuspended in full media and dispensed into 150 mm cell culture dishes (Nest Scientific Cat #715001), at 2.3×10^6 cells/flask. 7 hours later, cells were transfected using Lipofectamine transfection reagent (Invitrogen Cat #18324020). Briefly, 60 μL of lipofectamine was dispensed into 2 mL of Opti-MEM (Gibco Cat #31985070) and incubated for 5 minutes at room temperature. Then, the mixture was added onto […] of DNA and incubated for another 20 minutes at room temperature. Cells were washed with warm (37° C.) PBS. 17.5 mL of Opti-MEM was dispensed onto the cells, followed by addition of the Opti-MEM/lipofectamine/DNA mixture. Cells were incubated overnight in a 37° C., 5% CO2 cell incubator. 17-19 hours later, Opti-MEM was aspirated off the cells and replaced with full media. Cells were incubated for another 24 hours in a 37° C., 5% CO2 cell incubator.
On the day of the assay, cells were washed with PBS and then dissociated from tissue culture flasks with 0.25% trypsin. Dissociated cells were quenched in full media and then collected by centrifugation at 290×g for 5 min. Cells were resuspended in PBS^+/+ (Corning REF #20-030-CV) to a concentration of 2×10^5 cells/mL. 10 μL/well of cells (2,000 cells/well) were dispensed into 384-well Corning plates (REF #3825), in triplicate. Cells were incubated at room temperature for 2 hours.
Example FSHR Modulator compounds were diluted in assay buffer (PBS^+/+, 0.05% BSA Sigma-Aldrich A3059, 500 μM IBMX Sigma-Aldrich 15879) to 3.5× the final assay concentration. 4 μL of test agonist was added to the cells and incubated for 1 hour at room temperature. 10 μL of cAMP detection reagents (LANCE Ultra cAMP Detection Kit PerkinElmer TRF0264) were dispensed onto the cells and plates were incubated for 2 hours at room temperature (cAMP detection reagents were made according to the PerkinElmer kit protocol). Plates were read on an Envision plate reader following PerkinElmer guidelines.
Raw data for all assays was transmitted directly from plate readers into a database for processing. All assay plates contained both positive and negative control wells to allow for data normalization and scaling. In agonist assays, negative control wells contained assay buffer and positive control wells contained […] positive control (10 nM Follicle Stimulating Hormone Sigma-Aldrich F4021, 50 nM Thyroid Stimulating Hormone Sigma-Aldrich 869006, 50 nM Luteinizing Hormone MyBioSource MBS5308806, for their respective receptors). All control wells contained DMSO at a final assay concentration that matched the test compound wells. […]
Percent control data were analyzed by non-linear regression with a sigmoidal dose response algorithm in the database to yield potency and efficacy data.

pIC50	SMILES
7.36	COc1cc2c(cc1-c1cncc(C(N)=O)c1)-c1c(c(C(=O)N(C)C(C)(C)C)nn1-c1cc(Cl)cc(Cl)c1)[S+]([O-])C2 (single isomer, unassigned) [Compound 3-06]
8.17	COc1cc2c(cc1-c1cncc(C(N)=O)c1)-c1c(c(C(=O)N3CCOCC3(C)C)nn1-c1cc(Cl)cc(Cl)c1)SC2 [Compound 3-01, 5-[1-(3,5-dichlorophenyl)-3-(3,3-dimethylmorpholine-4-carbonyl)-7-methoxy-5H-isothiochromeno[4,3-c]pyrazol-8-yl]pyridine-3-carboxamide]
8.41	COc1cc2c(cc1-c1cncc(C(N)=O)c1)-c1c(c(C(=O)N(C)C(C)(C)C)nn1-c1cc(Cl)cc(Cl)c1)SC2 [Compound 3-02, N-tert-butyl-8-(5-carbamoyl-3-pyridyl)-1-(3,5-dichlorophenyl)-7-methoxy-N-methyl-5H-isothiochromeno[4,3-c]pyrazole-3-carboxamide]
6.49	COc1cc2c(cc1-c1ccn(C)n1)-c1c(c(C(=O)N3CCOCC3(C)C)nn1-c1cc(Cl)cc(Cl)c1)SC2 [Compound 3-03, (1-(3,5-dichlorophenyl)-7-methoxy-8-(1-methyl-1H-pyrazol-3-yl)-1,5-dihydroisothiochromeno[4,3-c]pyrazol-3-yl)(3,3-dimethylmorpholino)methanone]
6.65	COc1cc2c(cc1-c1ccn(C)n1)-c1c(c(C(=O)N(C)C(C)(C)C)nn1-c1cc(Cl)cc(Cl)c1)SC2 [Compound 3-04, N-tert-butyl-1-(3,5-dichlorophenyl)-7-methoxy-N-methyl-8-(1-methylpyrazol-3-yl)-5H-isothiochromeno[4,3-c]pyrazole-3-carboxamide]
7.25	COc1cc2c(cc1-c1cncc(C(N)=O)c1)-c1c(c(C(=O)N3CCOCC3(C)C)nn1-c1cc(Cl)cc(Cl)c1)[S+]([O-])C2 (stereo not shown) [Compound 3-05]
5.34	COc1cc2c(cc1-c1cncc(C(N)=O)c1)-c1c(c(C(=O)N(C)C(C)(C)C)nn1-c1cc(Cl)cc(Cl)c1)[S+]([O-])C2 (stereo not shown) [Compound 3-07, N-tert-butyl-8-(5-carbamoyl-3-pyridyl)-1-(3,5-dichlorophenyl)-7-methoxy-N-methyl-4-oxo-5H-isothiochromeno[4,3-c]pyrazole-3-carboxamide]
6.24	COc1cc2oc3c(C(=O)N4CCOCC4(C)C)nn(-c4ccsc4)c3c2cc1-c1cncc(C#N)c1 [Compound 4-03, 5-[3-(3,3-dimethylmorpholine-4-carbonyl)-6-methoxy-1-(3-thienyl)benzofuro[3,2-c]pyrazol-7-yl]pyridine-3-carbonitrile]
6.23	COc1cc2oc3c(C(=O)N(C)C(C)(C)C)nn(-c4ccsc4)c3c2cc1-c1cncc(C(N)=O)c1 [Compound 4-04]
5.55	COc1cc2oc3c(C(=O)N4CCOCC4(C)C)nn(-c4ccsc4)c3c2cc1-c1ccn(C)n1 [Compound 4-07, (3,3-dimethylmorpholin-4-yl)-[6-methoxy-7-(1-methylpyrazol-3-yl)-1-(3-thienyl)benzofuro[3,2-c]pyrazol-3-yl]methanone]
7.83	COc1cc2c(cc1-c1cncc(C(N)=O)c1)-c1c(c(C(=O)N3CCOCC3(C)C)nn1-c1cc(Cl)cc(Cl)c1)C2 [Compound 5-01, 5-[1-(3,5-dichlorophenyl)-3-(3,3-dimethylmorpholine-4-carbonyl)-6-methoxy-4H-indeno[1,2-c]pyrazol-7-yl]pyridine-3-carboxamide]
6.71	COc1cc2c(cc1-c1cncc(C(N)=O)c1)-c1c(c(C(=O)N(C)C(C)(C)C)nn1-c1cc(Cl)cc(Cl)c1)C2 [Compound 5-02, N-tert-butyl-7-(5-carbamoyl-3-pyridyl)-1-(3,5-dichlorophenyl)-6-methoxy-N-methyl-4H-indeno[1,2-c]pyrazole-3-carboxamide]
8.33	COc1cc2c(cc1-c1cncc(C(N)=O)c1)-c1c(c(C(=O)N3CCOCC3(C)C)nn1-c1ccsc1)C2 [Compound 5-03, 5-[3-(3,3-dimethylmorpholine-4-carbonyl)-6-methoxy-1-(3-thienyl)-4H-indeno[1,2-c]pyrazol-7-yl]pyridine-3-carboxamide]

Continued, molecule first:

SMILES	pIC50
COc1cc2c(cc1-c1cncc(C(N)=O)c1)-c1c(c(C(=O)N3CCN(C(=O)OC(C)(C)C)C[C@@H]3C(C)C)nn1-c1cc(Cl)cc(Cl)c1)CC2 (stereo in doubt) [Compound 8-25A]	6.12
COc1cc2c(cc1-c1cncc(C(N)=O)c1)-c1c(c(C(=O)N3CCOCC3(C)C)nn1-c1cc(Cl)cc(Cl)c1)OC2 [Compound 2-01, 5-[1-(3,5-dichlorophenyl)-3-(3,3-dimethylmorpholine-4-carbonyl)-7-methoxy-5H-isochromeno[4,3-c]pyrazol-8-yl]pyridine-3-carboxamide]	8.46
COc1cc2c(cc1-c1cncc(C(N)=O)c1)-c1c(c(C(=O)N(C)C(C)(C)C)nn1-c1cc(Cl)cc(Cl)c1)OC2 [Compound 2-02]	8.70
COc1cc2c(cc1-c1cncc(C(N)=O)c1)-c1c(c(C(=O)N3CCOCC3(C)C)nn1-c1ccsc1)OC2 [Compound 2-03]	7.66
COc1cc2c(cc1-c1cncc(C(N)=O)c1)-c1c(c(C(=O)N(C)C(C)(C)C)nn1-c1ccsc1)OC2 [Compound 2-04]	8.10
COc1cc2c(cc1-c1ccn(C)n1)-c1c(c(C(=O)N3CCOCC3(C)C)nn1-c1cc(Cl)cc(Cl)c1)OC2 [Compound 2-05, [1-(3,5-dichlorophenyl)-7-methoxy-8-(1-methylpyrazol-3-yl)-5H-isochromeno[4,3-c]pyrazol-3-yl]-(3,3-dimethylmorpholin-4-yl)methanone]	6.20
COc1cc2c(cc1-c1ccn(C)n1)-c1c(c(C(=O)N(C)C(C)(C)C)nn1-c1cc(Cl)cc(Cl)c1)OC2 [Compound 2-06]	6.71
COc1cc2c(cc1-c1ccn(C)n1)-c1c(c(C(=O)N3CCOCC3(C)C)nn1-c1ccsc1)OC2 [Compound 2-07]	5.62
COc1cc2c(cc1-c1ccn(C)n1)-c1c(c(C(=O)N(C)C(C)(C)C)nn1-c1ccsc1)OC2 [Compound 2-08]	6.32
COc1cc2oc3c(C(=O)N4CCOCC4(C)C)n(-c4ccsc4)nc3c2cc1-c1cncc(C(N)=O)c1 [Compound 4-03A]	5.73
COc1cc2oc3c(C(=O)N4CCOCC4(C)C)nn(-c4ccsc4)c3c2cc1-c1cncc(C#N)c1 [Compound 4-03B]	5.63
COc1cc2oc3c(C(=O)N(C)C(C)(C)C)n(-c4ccsc4)nc3c2cc1-c1cncc(C(N)=O)c1 [Compound 4-04A]	5.87
